Results on six compounds are retold here after patent publication US20060128695A1, “Cyclic nucleotide phosphodiesterase inhibitors, preparation and uses” (NEURO3D, priority 2002, published 2006).

Common to all, as to assay type: biochemical, bovine
One assay concerns the target PDE4. Description: Selectivity: inhibition of PDE4, radioenzymatic phosphodiesterase assay. Particulars: vascular smooth muscle; for PDE4 percentage inhibition at 10 μM: 10 μM test compound. How it is done:
(§1) A 3 g segment of bovine aortic media cut into pieces with scissors was homogenized with an ultra-turrax then a potter glass/glass homogenizer in 7 volumes by weight of buffer A containing a protease inhibitor cocktail (20 mM Tris-HCl, 0.25 M saccharose, 2 mM magnesium acetate, 1 mM dithiothreitol, 5 mM EGTA, 2000 U/ml aprotinin, 10 mg/l leupeptin and 10 mg/l soya trypsic inhibitor). The homogenizate was centrifuged at 105,000 g for 1 hour. The supernatant was loaded on a DEAE-Sephacel column (15 x 1.6 cm) pre-equilibrated with buffer B (buffer A without the saccharose, EGTA and protease inhibitors). The column was washed until there was no detectable absorption at 280 nm, then eluted with a linear gradient of NaCl (0-0.5 M) in buffer B. 3-ml fractions were collected and enzyme activity was determined under the conditions described hereinbelow to localize the different enzymes PDE1, PDE3, PDE4 and PDE5 which were aliquoted and frozen at −80° C. (Lugnier et al., Biochem. Phamacol., 1986, 35: 1746-1751). PDE2 was prepared from bovine endothelial cells by the same methods (Lugnier and Schini, Biochem. Pharmacol., 1990, 39: 75-84).
(§2) Cyclic nucleotide phosphodiesterase activity was determined by a radioenzymatic method using tritium-labelled cyclic GMP or AMP (1 μM) as substrate (Lugnier et al., 1986). ^3H-labelled adenosine or guanosine monophosphate formed by hydrolysis of the radiolabelled cyclic nucleotide was then converted to ^3H-labelled adenosine or guanosine in a second reaction with […] in excess. The nucleoside formed was separated from the nucleotides by anion exchange chromatography. Nucleoside radioactivity was determined by liquid scintillation counting. Enzymatic incubations were carried out under conditions allowing no more than 15% hydrolysis of the substrate; each point was performed in duplicate.
(§3) The activity of the compounds was evaluated on other phosphodiesterase isoforms, particularly basal state or calmodulin-activated PDEl from vascular smooth muscle, PDE3, PDE4 and PDE5 from vascular smooth muscle.
(§4) The results obtained are presented in Tables 1 and 2 hereinbelow and are expressed as the percentage inhibition of enzymatic activity produced by […] of the test compound.

In another assay the target is T1, PDE2 (Bos taurus, UniProt P14099).
T1 construct: PDE2 was prepared from bovine endothelial cells by the same methods; endogenous in cells; host or cells: bovine endothelial cells
T1 sequence (P14099 1-921): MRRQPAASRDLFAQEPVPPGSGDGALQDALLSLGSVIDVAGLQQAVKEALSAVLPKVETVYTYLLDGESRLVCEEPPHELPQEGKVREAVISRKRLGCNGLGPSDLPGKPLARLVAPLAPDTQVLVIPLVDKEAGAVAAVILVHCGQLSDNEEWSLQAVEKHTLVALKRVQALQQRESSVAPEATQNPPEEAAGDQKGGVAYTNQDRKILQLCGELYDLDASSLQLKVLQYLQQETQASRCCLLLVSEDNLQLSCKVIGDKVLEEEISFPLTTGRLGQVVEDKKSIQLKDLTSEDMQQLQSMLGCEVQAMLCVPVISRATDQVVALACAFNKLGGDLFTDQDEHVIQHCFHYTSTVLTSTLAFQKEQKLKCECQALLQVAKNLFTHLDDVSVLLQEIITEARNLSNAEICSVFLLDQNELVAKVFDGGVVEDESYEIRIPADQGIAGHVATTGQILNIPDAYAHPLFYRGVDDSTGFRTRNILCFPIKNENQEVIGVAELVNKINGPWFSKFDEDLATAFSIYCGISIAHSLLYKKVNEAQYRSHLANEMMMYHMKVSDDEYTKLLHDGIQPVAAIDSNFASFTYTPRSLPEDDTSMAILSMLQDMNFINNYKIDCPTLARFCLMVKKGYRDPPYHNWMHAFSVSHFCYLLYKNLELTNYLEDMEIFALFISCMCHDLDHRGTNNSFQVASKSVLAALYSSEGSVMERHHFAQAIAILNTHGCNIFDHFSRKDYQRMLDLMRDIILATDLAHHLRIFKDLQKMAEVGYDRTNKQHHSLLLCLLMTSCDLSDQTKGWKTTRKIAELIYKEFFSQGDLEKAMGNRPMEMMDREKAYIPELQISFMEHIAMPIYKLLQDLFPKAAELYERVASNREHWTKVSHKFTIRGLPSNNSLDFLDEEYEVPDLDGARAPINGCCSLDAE
Put plainly: Inhibition of PDE2, radioenzymatic phosphodiesterase assay.

The next assay addresses T2, PDE5 (Bos taurus, UniProt Q28156).
T2 construct: localize the different enzymes PDE1, PDE3, PDE4 and PDE5 which were aliquoted and frozen; from tissue; host or cells: bovine aortic media (vascular smooth muscle)
Description: Selectivity: inhibition of PDE5, radioenzymatic phosphodiesterase assay. The conditions noted are these: 10 μM test compound; vascular smooth muscle; read-out: PDE5 percentage inhibition at 10 μM. The procedure:
as §1, §2, §3, §4

For another assay, the system named is PDE1. Put plainly: Selectivity: inhibition of PDE1, radioenzymatic phosphodiesterase assay. Particulars: 10 μM test compound; vascular smooth muscle. How it is done:
as §1
(§5) Cyclic nucleotide phosphodiesterase activity was determined by a radioenzymatic method using tritium-labelled cyclic GMP or AMP (1 μM) as substrate (Lugnier et al., 1986). ^3H-labelled adenosine or guanosine monophosphate formed by hydrolysis of the radiolabelled cyclic nucleotide was then converted to ^3H-labelled adenosine or guanosine in a second reaction with […] in excess. The nucleoside formed was separated from the nucleotides by anion exchange chromatography. Nucleoside radioactivity was determined by liquid scintillation counting. […]
as §3, §4

The target in the next assay is T3, PDE3 (Bos taurus, UniProt A0A3Q1M1E8).
T3 sequence (A0A3Q1M1E8 1-1126): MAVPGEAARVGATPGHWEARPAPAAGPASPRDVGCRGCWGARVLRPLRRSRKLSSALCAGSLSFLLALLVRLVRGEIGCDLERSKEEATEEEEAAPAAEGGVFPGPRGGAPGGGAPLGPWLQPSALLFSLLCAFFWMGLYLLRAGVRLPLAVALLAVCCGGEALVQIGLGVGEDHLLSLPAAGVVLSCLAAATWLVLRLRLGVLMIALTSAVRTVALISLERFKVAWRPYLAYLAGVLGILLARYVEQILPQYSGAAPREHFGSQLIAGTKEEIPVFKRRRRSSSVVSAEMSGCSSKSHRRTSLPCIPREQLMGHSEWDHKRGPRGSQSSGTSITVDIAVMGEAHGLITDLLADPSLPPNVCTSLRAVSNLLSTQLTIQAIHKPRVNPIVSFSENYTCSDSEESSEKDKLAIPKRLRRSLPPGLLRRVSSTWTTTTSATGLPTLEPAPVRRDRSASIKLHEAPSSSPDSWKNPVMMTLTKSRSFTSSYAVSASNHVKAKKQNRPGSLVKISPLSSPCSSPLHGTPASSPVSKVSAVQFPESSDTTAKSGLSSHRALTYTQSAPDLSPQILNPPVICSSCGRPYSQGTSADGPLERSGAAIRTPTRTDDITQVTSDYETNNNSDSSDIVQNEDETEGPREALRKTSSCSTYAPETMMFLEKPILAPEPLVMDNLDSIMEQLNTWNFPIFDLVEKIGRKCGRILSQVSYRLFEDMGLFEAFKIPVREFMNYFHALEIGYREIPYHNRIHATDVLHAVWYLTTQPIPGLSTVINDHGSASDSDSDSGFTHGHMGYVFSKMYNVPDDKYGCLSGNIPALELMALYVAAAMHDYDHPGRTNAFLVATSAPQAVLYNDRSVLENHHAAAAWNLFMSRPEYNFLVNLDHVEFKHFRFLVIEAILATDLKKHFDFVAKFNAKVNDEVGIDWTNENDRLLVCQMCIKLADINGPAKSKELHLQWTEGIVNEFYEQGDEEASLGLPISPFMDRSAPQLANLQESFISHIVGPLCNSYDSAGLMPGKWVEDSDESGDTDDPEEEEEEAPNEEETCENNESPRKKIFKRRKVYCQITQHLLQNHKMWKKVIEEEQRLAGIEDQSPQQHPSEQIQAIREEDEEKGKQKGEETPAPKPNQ
Put plainly: Selectivity: inhibition of PDE3, radioenzymatic phosphodiesterase assay. Particulars: 10 μM test compound; vascular smooth muscle; read-out: PDE3 percentage inhibition at 10 μM. How it is done:
as §1, §5, §3, §4

In general, IC50 refers to the point on the concentration scale where inhibition reaches its midpoint. A higher IC50 goes with lower potency. On to `CCN1C(=O)C(Cc2ccc(Cl)c(Cl)c2)N=C(c2ccccc2)c2cc(OC)c(OC)cc21` (stereo not drawn) [Compound 7a, 3-(3,4-dichlorobenzyl)-1-ethyl-7,8-dimethoxy-5-phenyl-1,3-dihydro-2H-1,4-benzodiazepin-2-one], for which the IC50 was found to be 6.52 µM against PDE4 (cells without % sign) and 3.13 µM against PDE2.

For orientation: inhibition means how much of the control response was suppressed. For `COc1cc2c(cc1OC)N(C)C(=O)CN=C2c1cccc(C(F)(F)F)c1` [Compound 4p, 7,8-dimethoxy-1-methyl-[5-(3-trifluoromethyl)phenyl]-1,3-dihydro-2H-1,4-benzodiazepin-2-one], the inhibition at 10 µM on PDE5 is 26%; on PDE3, 58%. For the same compound, the “PDE4 percentage inhibition at 10 μM” value with PDE4 is 19%. On PDE2, this compound showed a half-maximal inhibitory concentration (IC50) of 1.8 µM. Moreover, the “PDE1 percentage inhibition at 10 μM” value in the assay with PDE1 is reported as 25%.

On to `COc1cc2c(cc1OC)N(C)C(=O)CN=C2c1cccc(-c2ccc(C(N)=O)cc2)c1` [Compound 6n, 3′-(7,8-dimethoxy-1-methyl-2-oxo-2,3-dihydro-1H-1,4-benzodiazepin-5-yl)-1,1′-biphenyl-4-carboxamide], for which, in the assay with PDE4, the “PDE4 percentage inhibition at 10 μM” value stood at 58.7%. Also, the inhibition at 10 µM at PDE2 (read-out: PDE2 percentage inhibition at 10 μM) was determined as 84.6%.

For `COc1cc2c(cc1OC)N(C)C(=O)CN=C2c1cccnc1` [Compound 17b, 7,8-dimethoxy-1-methyl-5-(3-pyridyl)-1,3-dihydro-1,4-benzodiazepin-2-one], the values for the inhibition at 10 µM at PDE5 and on PDE3 were 14% and 36%, respectively. Besides, the “PDE4 percentage inhibition at 10 μM” value with PDE4 was found to be 8%. At PDE2, the midpoint of inhibition, the IC50, lay at 1.5 µM. For the same compound, the “PDE1 percentage inhibition at 10 μM” value in the assay on PDE1 was 10%.

On to `COc1cc2c(cc1OC)N(C)C(=O)CN=C2c1cccc(C#CCCCC#N)c1` [Compound 6d, 6-[3-(7,8-dimethoxy-1-methyl-2-oxo-2,3-dihydro-1H-1,4-benzodiazepin-5-yl)phenyl]hex-5-ynenitrile], for which the “PDE4 percentage inhibition at 10 μM” value with PDE4 is 55.7%. The IC50 against PDE2 stood at 2.4 µM.

In the case of `COc1cc2c(c(Br)c1OC)C(c1cccc(C(N)=O)c1)=NCC(=O)N2C` [Compound 5b, 3-(6-bromo-7,8-dimethoxy-1-methyl-2-oxo-2,3-dihydro-1H-1,4-benzodiazepin-5-yl)benzamide], on PDE5, the inhibition at 10 µM is 21.6%. Further, the 50% inhibitory concentration (IC50) on PDE2 was determined as 2.1 µM.
